{"source": "patent US20240173334A1", "about": "“Oral (17-ß)-3-Oxoandrost-4-EN-17-YL Tridecanoate Therapy” (Lipocine Inc., priority 2018, published 2024)", "key": {"[1]": {"test": "ascending multiple-dose steady-state PK of undecanoate in dosage form B1 in hypogonadal males (Example 6)", "format": "in vivo, human (adult hypogonadal male subjects)", "method": "A single-center, randomized, double-blind, placebo-controlled, ascending multiple-dose, serial-group study was conducted to evaluate the safety, tolerability, and the steady-state PK parameters of an oral composition comprising substantially noncrystalline form of (17-ß)-3-oxoandrost-4-en-17-yl undecanoate in adult hypogonadal male subjects (N=84). The treatments were following as: • Treatment A: 75 mg of (17-ß)-3-oxoandrost-4-en-17-yl undecanoate as androst-4-en-17β-ol-3-one ester based on dosage form B1 in BID. • Treatment B: 150 mg of (17-ß)-3-oxoandrost-4-en-17-yl undecanoate as androst-4-en-17β-ol-3-one ester based on dosage form B1 in BID. • Treatment C: 225 mg of (17-ß)-3-oxoandrost-4-en-17-yl undecanoate as androst-4-en-17β-ol-3-one ester based on dosage form B1 in BID. • Treatment D: 300 mg of (17-ß)-3-oxoandrost-4-en-17-yl undecanoate as androst-4-en-17β-ol-3-one ester based on dosage form B1 in BID. • Treatment E: placebo capsules in BID\n(§1) The steady state PK parameters were obtained post the treatment initiation."}, "[2]": {"test": "multiple-dose steady-state PK of dosage form B7 in hypogonadal males (Example 5)", "format": "in vivo, human (hypogonadal males)", "method": "A multi-center, open-label, randomized, 4-treatment arm, multiple-dose study was performed to evaluate the safety, tolerability, and the steady-state PK parameters of the oral composition comprising substantially noncrystalline form of (17-ß)-3-oxoandrost-4-en-17-yl tridecanoate (dosage form B7) in hypogonadal males (N=48). The treatments were following as: • Treatment A: 500 mg of (17-ß)-3-oxoandrost-4-en-17-yl tridecanoate as androst-4-en-17β-ol-3-one ester in dosage form B7 in QD. • Treatment B: 750 mg of (17-ß)-3-oxoandrost-4-en-17-yl tridecanoate as androst-4-en-17β-ol-3-one ester in dosage form B7 in QD. • Treatment C: 1000 mg of (17-ß)-3-oxoandrost-4-en-17-yl tridecanoate as androst-4-en-17β-ol-3-one ester in dosage form B7 in QD. • Treatment D: 1250 mg of (17-ß)-3-oxoandrost-4-en-17-yl tridecanoate as androst-4-en-17β-ol-3-one ester in dosage form B7 in QD.\nas §1\nThe evaluation of the relation between Cavg or Cmax and dose amount of (17-ß)-3-oxoandrost-4-en-17-yl tridecanoate was performed using the group mean values of Cavg and Cmax of androst-4-en-17β-ol-3-one obtained at the steady state."}, "[3]": {"conditions": "75 mg BID, dosage form B1, N=16"}, "[4]": {"conditions": "150 mg BID, dosage form B1, N=16"}, "[5]": {"conditions": "225 mg BID, dosage form B1, N=16"}, "[6]": {"conditions": "300 mg BID, dosage form B1, N=9"}, "[7]": {"conditions": "500 mg QD, dosage form B7, N=12"}, "[8]": {"conditions": "750 mg QD, dosage form B7, N=11"}, "[9]": {"conditions": "1000 mg QD, dosage form B7, N=12"}, "[10]": {"conditions": "1250 mg QD, dosage form B7, N=12"}}, "data": [{"compound": "CCCCCCCCCCC(=O)O[C@H]1CC[C@H]2[C@@H]3CCC4=CC(=O)CC[C@]4(C)[C@H]3CC[C@]12C", "note": "[(17-ß)-3-oxoandrost-4-en-17-yl undecanoate]", "values": [{"measurement": "Cavg of androst-4-en-17β-ol-3-one, mean (±SD)", "setting": "[1]; [3]", "value": "270 (94) ng/dL"}, {"measurement": "Cmax of androst-4-en-17β-ol-3-one, mean (±SD)", "setting": "[1]; [3]", "value": "544 (169) ng/dL"}, {"measurement": "Cavg of androst-4-en-17β-ol-3-one, mean (±SD)", "setting": "[1]; [4]", "value": "319 (77) ng/dL"}, {"measurement": "Cmax of androst-4-en-17β-ol-3-one, mean (±SD)", "setting": "[1]; [4]", "value": "792 (276) ng/dL"}, {"measurement": "Cavg of androst-4-en-17β-ol-3-one, mean (±SD)", "setting": "[1]; [5]", "value": "446 (161) ng/dL"}, {"measurement": "Cmax of androst-4-en-17β-ol-3-one, mean (±SD)", "setting": "[1]; [5]", "value": "1169 (356) ng/dL"}, {"measurement": "Cavg of androst-4-en-17β-ol-3-one, mean (±SD)", "setting": "[1]; [6]", "value": "582 (184) ng/dL"}, {"measurement": "Cmax of androst-4-en-17β-ol-3-one, mean (±SD)", "setting": "[1]; [6]", "value": "1644 (644) ng/dL"}]}, {"compound": "CCCCCCCCCCCCC(=O)O[C@H]1CC[C@H]2[C@@H]3CCC4=CC(=O)CC[C@]4(C)[C@H]3CC[C@]12C", "note": "[[(8R,9S,10R,13S,14S,17S)-10,13-dimethyl-3-oxo-1,2,6,7,8,9,11,12,14,15,16,17-dodecahydrocyclopenta[a]phenanthren-17-yl] tridecanoate]", "values": [{"measurement": "Cavg of androst-4-en-17β-ol-3-one, mean (±SD)", "setting": "[2]; [7]", "value": "307 (157) ng/dL"}, {"measurement": "Cmax of androst-4-en-17β-ol-3-one, mean (±SD)", "setting": "[2]; [7]", "value": "608 (318) ng/dL"}, {"measurement": "Cavg of androst-4-en-17β-ol-3-one, mean (±SD)", "setting": "[2]; [8]", "value": "352 (41) ng/dL"}, {"measurement": "Cmax of androst-4-en-17β-ol-3-one, mean (±SD)", "setting": "[2]; [8]", "value": "822 (254) ng/dL"}, {"measurement": "Cavg of androst-4-en-17β-ol-3-one, mean (±SD)", "setting": "[2]; [9]", "value": "405 (148) ng/dL"}, {"measurement": "Cmax of androst-4-en-17β-ol-3-one, mean (±SD)", "setting": "[2]; [9]", "value": "930 (326) ng/dL"}, {"measurement": "Cavg of androst-4-en-17β-ol-3-one, mean (±SD)", "setting": "[2]; [10]", "value": "465 (201) ng/dL"}, {"measurement": "Cmax of androst-4-en-17β-ol-3-one, mean (±SD)", "setting": "[2]; [10]", "value": "1233 (695) ng/dL"}]}]}
